Columns and labels:
[1] = system: Chikungunya Virus (CHIKV) strain LR2006-OPY1 with GFP modification (CHIK 5'LR); test: Inhibition of Chikungunya virus (CHIKV) production in infected HEK293T cell line (GFP fluorescence); format: cell-based; settings: HEK-293T, infected HEK293T cells; for inhibition at 1 µM: compounds at 1 μM, MOI 0.1, 22 h, values above 100 lowered to 100, read-out: % CHIKV Inhibition Mean (n = 2); for IC50: second round of experiments
Procedure: The ability of the compounds to inhibit viral replication was assessed with an experiment in which infected cells were treated by compounds of formula (I) at 1 μM. As a positive control for inhibition of Chikungunya, Ribavirin was used. Toxicity of the compounds was assessed in parallel.
Human embryonic kidney cells 293T (HEK293T, CRL-11268) were maintained in Dulbecco's modified Eagle's Medium (DMEM, 31966-021, Thermo Fisher Scientific) supplemented with 10% of fetal bovine serum (FBS), penicillin and streptomycin. After removal of the medium, cells were washed with a Ca^2+- and Mg^2+-free salt solution to remove all traces of serum. After aspiration of wash solution, cells were dissociated with 0.25% Trypsin-EDTA solution and incubated 30 s at least in 37° ° C. incubator. Concentration of cell suspension was determined by an automatic cell counter (EVE, NanoEntek) and, if needed, adjusted to 0.33×10^6 cells/mL with DMEM medium supplemented with 10% FBS.
100 μL of the cell suspension were dispatched in a ViewPlate-96 Black (6005182, PerkinElmer) and in a transparent 96-well cell culture plate (655180, Greiner bio-one). After an incubation for 24 h at 37° C. under 5% of CO2, compounds were added at the proper concentration.
An intermediate dilution was prepared with DMSO (D8418, Sigma) at 2 mM in a 96-well V-bottom microplate from the stock solution:
Mix 1 μL of the 50 mM stock library in 25 μL of DMSO.
Mix 2 μL of the 25 mM stock library in 25 μL of DMSO.
An intermediate dilution was prepared with DMSO (D8418, Sigma) at 25 mM in a 96-well V-bottom microplate from the stock solution:
Mix 2 μL of the 50 mM stock library in 2 μL of DMSO.
Serial dilutions were performed in 2 μL of DMSO 13 times to reach 0.0015 mM as follows in table III:
For both screen and determination of IC50 1 μL of each solution was added in a 1 mL Masterblock 96 wells (Greiner bio-one, 780261) containing 1 mL of DMEM medium. As a positive control, 5 μL of a 80 mM Ribavirin solution (R9644, Sigma) is added to 1 mL of DMEM. On the other hand, DMSO is used as a negative control.
[…]. Vector Borne Zoonotic Dis. 2006; 6(4)). This modified virus was used to infect cells at MOI 0.1. […].
Medium was removed after 22 h at 37° ° C. under 5% of CO2 and cells were washed as described above. 60 μL of RIPA buffer (50 mM Tris-HCl pH8, 100 mM NaCl, 1 mM MgCl2, 1% Triton X-100) was added to cells and incubated for at least 20 min before reading fluorescence signal. Pierce 660 nm Protein Assay Reagent (22660, Thermo scientific) was used to normalize fluorescence signal by protein quantity.
A first round of experiments has been performed wherein the results are expressed as inhibition percentage, which is calculated as follows, through the following steps:
1. Fluorescence intensity (FI) 509 nm/Absorbance 660 nm (A660)=A
This ratio allows considering the infection (GFP virus) to the protein amount.
2. A′=A—background noise of non-infected plate,
3. B=Fluorescence intensity (FI)/Absorbance 660 nm (A660) of infected but non treated plates,
4. C=A′/B which is then converted as the percentage of infection after treatment, compared to non-treated sample, and subsequently as the […]. For instance, a value of 100 in Table IV here below means that, after treatment, the signal attributed to GFP fluorescence is abolished, which is correlated to the absence of infection.
This value corresponds to the inhibition's percentage.
The following Table IV encompasses said C′ value for some compounds as calculated above with a mean of 2 experiments, and the corresponding standard deviation.
Some values were originally above 100. In these cases, the value has been lowered to 100. This means that some molecules also have an impact on the viability of the cells. In other words, the A value may be lower than the background noise.
Moreover, for each measure, the test was performed with Ribavirin as control. The value of the inhibition percentage was checked, giving 100%.

RSV A2 = test: Screening for RSV inhibition using Viral ToxGlo assay in HEp-2 cells; format: cell-based; settings: human respiratory syncytial virus, HEp-2, 72 h
Procedure: Protocol for Screening Antiviral Compounds for RSV Inhibition and Cytotoxicity Using Viral ToxGlo Assay
HEp-2 cells were maintained in Eagle's minimum essential medium (EMEM) with Earle's BSS adjusted to contain 2 mM L-glutamine, 10% fetal bovine serum, 100 U/ml penicillin and 100 μg/ml streptomycin. For the purposes of the screening assay they were grown to 90% confluency, trypsinized and recovered. The trypsin was neutralised with cell culture media and cells were centrifuged at 150×g for 5 minutes before discarding the supernatant and resuspending cell pellet in assay media (EMEM with Earle's BSS adjusted to contain 2 mM L-glutamine, 2% fetal bovine serum and 100 U/ml penicillin and 100 μg/ml streptomycin). The cells were seeded into white clear-bottomed cell culture plates at a density of 1.5×10^4 cells/well in 50 μl and 4×10^3 cells/well in 25 μl for 96 well plates and 384 well plates respectively. For the media/background control column assay media only was added. Cell plates were placed in a humid chamber and incubated overnight at 37° C./5% CO2. After overnight incubation cells were checked for confluency and healthy appearance.
Test articles were made up at 10× test concentration in a maximum DMSO concentration of 10% (final assay concentration maximal 1% DMSO) and added to the cell plates in volumes of 10 μl for 96 well plates and 5 μl for 384 well plates. For cell control and virus control wells the test article solvent only was added. Virus or assay media for cytotoxicity test wells and media/cell control wells was added immediately after test articles at an MOI of 0.5, 40 or 20 μl for 96 and 384 well plates respectively. Virus suspension was prepared by thawing RSV A2 frozen stocks and diluting to the required concentration of plaque forming units in assay media on ice.
(§1) Cell plates were further incubated inside a humid chamber for 72 h p.i at 37° C./5% CO2. After the incubation period cells were observed under the microscope to check for characteristic cytopathic effect in virus control wells and healthy cells in the cell control wells. After plates were adjusted to room temperature 20/40 μl Viral ToxGlo (Promega) was added to each well of the 384/96 well cell plates. Plates were incubated at room temperature, protected from light on a plate rocker for 20 minutes before measuring the luminescence on a spectrophotometer (Biotek Synergy HTX).
RSV inhibition was calculated as percentage of cytopathic effect inhibition relative to the virus control and cytotoxicity as percentage of cell survival relative to cell control wells. This allowed EC50 values to be calculated for each test article where a virus inhibition or cytotoxic dose response was identified. EC50 values ranging between 0.001 µM and 5 μM could thus be determined for compounds 1, 6, 10, 13, 28, 38, 43, 47, 48, 49, 50, 51, 52, 53, 54, 55, 56 and 57.

DENV-2 strain 16681 = test: Screening for DENV-2 inhibition using Viral ToxGlo assay in A549 cells; format: cell-based, Dengue 2 virus; settings: Dengue virus, DENV2, A549, 120 h, read-out: % DENV-2 Inhibition Mean (n = 3)
Procedure: Protocol for Screening Antiviral Compounds for DENV-2 Inhibition and Cytotoxicity Using Viral ToxGlo Assay
A549 cells were maintained in Dulbecco's Modified Eagle Medium (DMEM) supplemented with 10% fetal bovine serum, 100 U/ml penicillin and 100 μg/ml streptomycin. For the purposes of the screening assay they were grown to 90% confluency, trypsinized and recovered. The trypsin was neutralised with cell culture media and cells were centrifuged at 150×g for 5 minutes before discarding the supernatant and resuspending cell pellet in assay media (DMEM supplemented with 2% fetal bovine serum and 100 U/ml penicillin and 100 μg/ml streptomycin). The cells were seeded into 96-well white clear-bottomed cell culture plates at a density of 1.0×10^4 cells/well in 50 μl. For the media/background control column assay media only was added. Cell plates were placed in a humid chamber and incubated overnight at 37° C./5% CO2. After overnight incubation cells were checked for confluency and healthy appearance.
Test compounds were prepared at a final concentration of 10 μM, in a maximum DMSO concentration of 1% (final assay concentration maximal 0.1% DMSO) and added to the cell plates in volumes of 10 μl. For cell control and virus control wells the test article solvent only was added. As a positive inhibition control, 7-Deaza-2′-C-methyladenosine was added at 100 μM in 3 wells. Virus (DENV-2 strain 16681) or assay media for cytotoxicity test wells and media/cell control wells was added immediately after test articles at an MOI of 0.5, 40 for 96 well plates respectively. Virus suspension was prepared by thawing DENV-2 frozen stocks and diluting to the required concentration of plaque forming units in assay media.
as §1, with “5 days” for “72 h”, “20” for “20/40”, “96-well” for “384/96 well”, “temperature” for “temperature, protected from light on a plate rocker”, “5” for “20”, “(Envision, PerkinElmer).” for “(Biotek Synergy HTX).”
DENV-2 inhibition was calculated as percentage of cytopathic effect inhibition relative to the virus control and cytotoxicity as percentage of cell survival relative to cell control wells.

SMILES | inhibition at 1 µM [1] | EC50 (RSV A2) | IC50 [1] | inhibition at 10 µM (DENV-2 strain 16681)
Cc1cc(OC(F)(F)F)ccc1Nc1ccc2cccc(Cl)c2n1 [Compound 1, 8-chloro-N-(2-methyl-4-(trifluoromethoxy)phenyl)quinolin-2-amine] | 97% | 3310 nM |  | 
CCCc1cc(OC(F)(F)F)ccc1Nc1ccc2cccc(Cl)c2n1 [Compound 6, 8-chloro-N-(2-propyl-4-(trifluoromethoxy)phenyl)quinolin-2-amine] | 100% | 1210 nM | 1 to 200 nM | 
Cc1ccc(Oc2ccc(Nc3ccc4ccccc4n3)cc2)cc1 [Compound 28, N-(4-(p-tolyloxy)phenyl)quinolin-2-amine] |  | 1780 nM |  | 
Cc1cc(Oc2ccccc2F)ccc1Nc1ccc2ccccc2n1 [Compound 38, N-(4-(2-fluorophenoxy)-2-methylphenyl)quinolin-2-amine] | 98% | 200 nM | 1 to 200 nM | 
Clc1cccc2ccc(Nc3ccc(OC4CCCC4)cc3C3CC3)nc12 [Compound 44, 8-chloro-N-(4-(cyclopentyloxy)-2-cyclopropylphenyl)quinolin-2-amine] |  |  | 1 to 200 nM | 94%
Fc1ccccc1Oc1ccc(Nc2ccc3ccccc3n2)c(C2CC2)c1 [Compound 46, N-(2-cyclopropyl-4-(2-fluorophenoxy)phenyl)quinolin-2-amine] |  |  | 1 to 200 nM | 104%
Cc1cc(OCc2ccccc2)ccc1Nc1ccc2cccc(Cl)c2n1 [Compound 47, N-(4-(benzyloxy)-2-methylphenyl)-8-chloroquinolin-2-amine] |  | 420 nM |  | 82%
Cc1cc(OC(C)C)c(C2CC2)cc1Nc1ccc2cccc(Cl)c2n1 [Compound 48, 8-chloro-N-(5-cyclopropyl-4-isopropoxy-2-methylphenyl)quinolin-2-amine] |  | 360 nM |  | 
Cc1c(Nc2ccc3cccc(Cl)c3n2)cccc1OC(C)C [Compound 49, 8-chloro-N-(3-isopropoxy-2-methylphenyl)quinolin-2-amine] |  | 513 nM |  | 
Cc1c(Nc2ccc3cccc(Cl)c3n2)cccc1OCc1ccccc1 [Compound 50, N-(3-(benzyloxy)-2-methylphenyl)-8-chloroquinolin-2-amine] |  | 283 nM |  | 
COc1ccc(Oc2ccc(Nc3ccc4ccccc4n3)c(C)c2)cc1 [Compound 51, N-(4-(4-methoxyphenoxy)-2-methylphenyl)quinolin-2-amine] |  | 412 nM |  | 
COc1ccc(Oc2ccc(Nc3ccc4ccccc4n3)c(C3CC3)c2)c(F)c1 [Compound 52, N-(2-cyclopropyl-4-(2-fluoro-4-methoxyphenoxy)phenyl)quinolin-2-amine] |  | 344 nM |  | 
Cc1cc(Oc2ccc(O)cc2F)ccc1Nc1ccc2ccccc2n1 [Compound 53, 3-fluoro-4-(3-methyl-4-(quinolin-2-ylamino)phenoxy)phenol] |  | 196 nM |  | 
Cc1cc(Oc2cccc3ccccc23)ccc1Nc1ccc2cccc(Cl)c2n1 [Compound 54, 8-chloro-N-(2-methyl-4-(naphthalen-1-yloxy)phenyl)quinolin-2-amine] |  | 94 nM |  | 69%
Cc1c(Nc2ccc3cccc(Cl)c3n2)cccc1Oc1ccccc1 [Compound 55, 8-chloro-N-(2-methyl-3-phenoxyphenyl)quinolin-2-amine] |  | 192 nM |  | 
Cc1cc(Oc2ccccc2)ccc1Nc1ccc2cccc(Cl)c2n1 [Compound 56, 8-chloro-N-(2-methyl-4-phenoxyphenyl)quinolin-2-amine 2,2,2-trifluoroacetate] |  | 132 nM |  | 76%
Cc1cc(Oc2ccc3ccccc3c2)ccc1Nc1ccc2cccc(Cl)c2n1 [Compound 57, 8-chloro-N-(2-methyl-4-(naphthalen-2-yloxy)phenyl)quinolin-2-amine] |  | 473 nM |  | 

Reference: patent US12084422B2, “Phenyl-n-quinoline derivatives for treating a RNA virus infection” (ABIVAX, priority 2018, dated 2024)
